# Data as given in paper PMC8379256, “A xanthene derivative, DS20060511, attenuates glucose intolerance by inducing skeletal muscle-specific GLUT4 translocation in mice” (Communications Biology, 2021).
# “And” between values parts separate entries of the source, which are not always exact repeats. Equal values may be shown once.
# What was measured:
# [1] = tested on: wild-type and GLUT4KO mice; test: Oral GTT in wild-type and GLUT4 knockout mice; type: in vivo, mouse; conditions: for Blood glucose / Plasma insulin: glucose tolerance test, DS20060511 30 mg/kg, individual animals, 30 mg/kg; for blood glucose and plasma insulin levels during oral GTT (in words): 30 mg kg−1 po
# Method: (§1) Fig. 3 The glucose-lowering effect of DS20060511 is totally dependent on GLUT4. a Blood glucose and plasma insulin levels during oral GTT in wild-type (WT, n = 5) and GLUT4 knockout (KO, n = 6) mice. Mice received oral administration of vehicle or DS20060511 (30 mg kg^−1), 15 min prior to the glucose administration (1.5 g kg^−1). Values shown are means ± SEM. *P < 0.05, **P < 0.01 vs. vehicle by the t-test. b DS20060511-stimulated [^3H]-2-DG uptake in the isolated soleus and EDL muscles excised from WT (n = 6) and KO (n = 6) mice. Values shown are means ± SEM. **P < 0.01 vs. vehicle by the t-test.
# C57BL/6 and db/db mice were purchased from CLEA Japan, Tokyo, Japan. GLUT4- knockout mice were generated at RIKEN BioResource Center, Tsukuba, Japan, according to a previously described method. eNOS-knockout mice were kindly provided by Dr. Masato Tsutsui[41],[42]. The mice were group-housed under controlled illumination (12:12 h light-dark cycle) and temperature (23 ± 2 °C) conditions and given free access to normal chow and water, unless otherwise specified. The HFD-fed obese mice were prepared by feeding C57BL/6 mice a HFD for at least 8 weeks from 6 weeks of age. […] Male mice were used for all the experiments in this study. The animal care and experimental procedures used in the study were approved by The University of Tokyo Animal Care Committee (Approval number: 27-3), and the study was carried out in accordance with the Animal Experimentation Guidelines of Daiichi Sankyo Co., Ltd (Approved number: 20000411).
# Mice that had been denied access to food overnight received the indicated oral dose of DS20060511 or vehicle 15 min prior to the glucose load (1.5 g kg^−1, except for eNOS-knockout mice, which received 3.0 g kg^−1). Then, after the oral glucose load, the blood glucose levels were measured using Glutest Every in samples obtained from the tail vein at the indicated timepoints. Plasma insulin concentrations were also measured with an ELISA kit (Morinaga Institute of Biological Science, Yokohama, Japan) in blood samples collected from the tail vein at the indicated timepoints.
# [2] = tested on: isolated soleus and EDL muscles; test: [3H]-2-DG uptake in isolated soleus and EDL muscles from WT and GLUT4KO mice; design: species or system mouse; conditions: for 2DOG Trn / IC 2DOG / 2-DG uptake Raio: DS20060511 10μM, individual muscles; for 2DOG Trn / IC 2DOG: 2DG 1 mM, incubation time 10 min; for 2-DG uptake Raio: ratio to vehicle
# Method: as §1
# The soleus or EDL muscle was removed from anesthetized mice (isoflurane anesthesia) that had been denied access to food overnight, and incubated with oxygenated (95% O2/5% CO2) Krebs-Henseleit Bicarbonate (KHB) buffer (118.1 mM NaCl, 4.7 mM KCl, 1.1 mM KH2PO4, 1.2 mM MgSO4, 2.5 mM CaCl2, and 25 mM NaHCO3, pH7.4) in the presence of 11.1 mM glucose at 37 °C. The muscle specimens were then treated with the indicated concentrations of the compounds in KHB buffer containing 11.1 mM glucose and 8 mM mannitol for 10 min at 37 °C. Thereafter, the muscles were rinsed with KHB buffer containing 8 mM mannitol and the compounds for 5 min at 37 °C. Lastly, the muscles were treated with the compounds in KHB buffer containing 1 mM 2-DG (with 0.3 μCi mL^−1 [^3H]-2-DG) and 8 mM mannitol (with 0.03 μCi mL^−1 [^14C]-mannitol) for 10 min at 37 °C. After the muscle specimens were washed, they were lysed with 1 N NaOH and neutralized with 1 N HCl. The ^14C- and ^3H-specific activities were counted with a liquid scintillation counter. The specific uptake of 2-DG was calculated by subtracting the nonspecific uptake of mannitol from the total 2-DG uptake. To investigate the effects of muscle contraction, muscle contraction was induced by electrical stimulation with 5 Hz (1 ms pulse duration, 100 V) for 10 min (SEN-5201, Nihon Koden, Tokyo, Japan).
smiles,measurement,setting,value
COc1ccc2c(C)c(C(=O)O)ccc2c1C1C2=C(CC(C)(C)CC2=O)OC2=C1C(=O)CC(C)(C)C2 [DS20060511],Blood glucose,"[1]; GLUT4KO mice, 0 min",151 mg/dL and 106 mg/dL and 203 mg/dL and 105 mg/dL and 130 mg/dL
same,Plasma insulin,"[1]; GLUT4KO mice, 0 min",0.11 ng/mL and 0.07 ng/mL and 0.16 ng/mL and 0.12 ng/mL and 0.18 ng/mL
same,Blood glucose,"[1]; GLUT4KO mice, 15 min",361 mg/dL and 352 mg/dL and 278 mg/dL and 400 mg/dL and 444 mg/dL
same,Plasma insulin,"[1]; GLUT4KO mice, 15 min",0.43 ng/mL and 0.42 ng/mL and 0.55 ng/mL and 0.33 ng/mL and 0.70 ng/mL and 0.59 ng/mL
same,Blood glucose,"[1]; GLUT4KO mice, 30 min",422 mg/dL and 387 mg/dL and 377 mg/dL and 384 mg/dL and 492 mg/dL and 513 mg/dL
same,Plasma insulin,"[1]; GLUT4KO mice, 30 min",0.34 ng/mL and 0.39 ng/mL and 0.25 ng/mL and 0.30 ng/mL and 0.28 ng/mL
same,Blood glucose,"[1]; GLUT4KO mice, 60 min",272 mg/dL and 266 mg/dL and 232 mg/dL and 390 mg/dL and 329 mg/dL and 389 mg/dL
same,Blood glucose,"[1]; GLUT4KO mice, 90 min",175 mg/dL and 168 mg/dL and 194 mg/dL and 265 mg/dL and 245 mg/dL and 275 mg/dL
same,Blood glucose,"[1]; GLUT4KO mice, 120 min",115 mg/dL and 112 mg/dL and 165 mg/dL and 193 mg/dL and 153 mg/dL and 190 mg/dL
same,Blood glucose,"[1]; GLUT4KO mice, -15 min",93 mg/dL and 75 mg/dL and 110 mg/dL and 49 mg/dL and 95 mg/dL and 89 mg/dL
same,Plasma insulin,"[1]; GLUT4KO mice, -15 min",0.06 ng/mL and 0.10 ng/mL and 0.11 ng/mL and 0.18 ng/mL and 0.13 ng/mL and 0.14 ng/mL
same,blood glucose and plasma insulin levels during oral GTT (in words),[1]; GLUT4KO mice,completely abolished
same,Blood glucose,"[1]; Wildtype mice, 0 min",69 mg/dL and 44 mg/dL and 58 mg/dL and 62 mg/dL and 46 mg/dL
same,Plasma insulin,"[1]; Wildtype mice, 0 min",0.10 ng/mL and 0.02 ng/mL and 0.13 ng/mL and 0.14 ng/mL
same,Blood glucose,"[1]; Wildtype mice, 15 min",133 mg/dL and 103 mg/dL and 142 mg/dL and 181 mg/dL and 104 mg/dL
same,Plasma insulin,"[1]; Wildtype mice, 15 min",0.16 ng/mL and 0.14 ng/mL and 0.17 ng/mL and 0.18 ng/mL and 0.11 ng/mL
same,Blood glucose,"[1]; Wildtype mice, 30 min",124 mg/dL and 111 mg/dL and 100 mg/dL and 107 mg/dL
same,Plasma insulin,"[1]; Wildtype mice, 30 min",0.26 ng/mL and 0.10 ng/mL and 0.15 ng/mL
same,Blood glucose,"[1]; Wildtype mice, 60 min",92 mg/dL and 64 mg/dL and 99 mg/dL and 91 mg/dL and 76 mg/dL
same,Blood glucose,"[1]; Wildtype mice, 90 min",71 mg/dL and 61 mg/dL and 87 mg/dL and 88 mg/dL and 68 mg/dL
same,Blood glucose,"[1]; Wildtype mice, 120 min",74 mg/dL and 72 mg/dL and 70 mg/dL and 78 mg/dL and 82 mg/dL
same,Blood glucose,"[1]; Wildtype mice, -15 min",66 mg/dL and 39 mg/dL and 48 mg/dL and 81 mg/dL and 64 mg/dL
same,Plasma insulin,"[1]; Wildtype mice, -15 min",0.14 ng/mL and 0.18 ng/mL and 0.11 ng/mL
same,blood glucose and plasma insulin levels during oral GTT (in words),[1]; wild-type (WT) mice,significant decrease of the blood glucose and plasma insulin levels
same,2-DG uptake by isolated soleus and EDL muscles (in words),[2]; GLUT4KO mice,no such increase in muscle uptake was observed
same,2DOG Trn,"[2]; GLUT4KO, isolated EDL",219 nmol/ml and 21.9 µM/min and 229 nmol/ml and 22.9 µM/min and 220 nmol/ml and 22.0 µM/min and 239 nmol/ml and 23.9 µM/min and 247 nmol/ml and 24.7 µM/min
same,IC 2DOG,"[2]; GLUT4KO, isolated EDL",136 nmol/g and 155 nmol/g and 142 nmol/g and 149 nmol/g and 143 nmol/g and 156 nmol/g
same,2-DG uptake Raio,"[2]; GLUT4KO, isolated EDL",1.02 and 1.07 and 1.03 and 1.11 and 1.15
same,2DOG Trn,"[2]; GLUT4KO, isolated Soleus",272 nmol/ml and 27.2 µM/min and 411 nmol/ml and 41.1 µM/min and 553 nmol/ml and 55.3 µM/min and 323 nmol/ml and 32.3 µM/min and 280 nmol/ml and 28.0 µM/min and 475 nmol/ml and 47.5 µM/min
same,IC 2DOG,"[2]; GLUT4KO, isolated Soleus",151 nmol/g and 223 nmol/g and 272 nmol/g and 155 nmol/g and 138 nmol/g and 244 nmol/g
same,2-DG uptake Raio,"[2]; GLUT4KO, isolated Soleus",0.86 and 1.30 and 1.75 and 1.02 and 0.89 and 1.50
same,2-DG uptake by isolated soleus and EDL muscles (in words),[2]; WT mice,significantly increased the 2-DG uptake
same,2DOG Trn,"[2]; Wildtype, isolated EDL",620 nmol/ml and 62.0 µM/min and 476 nmol/ml and 47.6 µM/min and 591 nmol/ml and 59.1 µM/min and 474 nmol/ml and 47.4 µM/min and 359 nmol/ml and 35.9 µM/min and 351 nmol/ml and 35.1 µM/min
same,IC 2DOG,"[2]; Wildtype, isolated EDL",373 nmol/g and 286 nmol/g and 340 nmol/g and 291 nmol/g and 235 nmol/g and 229 nmol/g
same,2-DG uptake Raio,"[2]; Wildtype, isolated EDL",2.47 and 1.90 and 2.36 and 2.12 and 1.61 and 1.57
same,2DOG Trn,"[2]; Wildtype, isolated Soleus",632 nmol/ml and 63.2 µM/min and 599 nmol/ml and 59.9 µM/min and 719 nmol/ml and 71.9 µM/min and 638 nmol/ml and 63.8 µM/min and 552 nmol/ml and 55.2 µM/min and 582 nmol/ml and 58.2 µM/min
same,IC 2DOG,"[2]; Wildtype, isolated Soleus",343 nmol/g and 302 nmol/g and 363 nmol/g and 327 nmol/g and 293 nmol/g and 321 nmol/g
same,2-DG uptake Raio,"[2]; Wildtype, isolated Soleus",1.76 and 1.67 and 2.01 and 2.02 and 1.75 and 1.84
